The term inhibition denotes the share of the control response that was lost under treatment. High values mean strong suppression, low ones little suppression.

In experiment [1] the test system is IFNβ expression (type I IFNβ promoter driving luciferase). The experiment in a line: IFNβ promoter luciferase assay in hTERT-pIFNβ-Glu cells transfected with ISD. The experiment is classed as cell-based, human. The method, then:
Inhibition of IFNβ expression was measured by Luciferase induction at 24 hours after transfection of ISD, DMSO is shown (230), ISD treatment only (220) was used as a control, according to an embodiment of the invention;
Inhibition of IFNβ expression was measured by Luciferase induction at 24 hours after transfection of ISD, Mock is shown (210), ISD treatment only (220) was used as a control, according to an embodiment of the invention;
Identification of small molecule inhibitors of STING. In the presence of cytosolic DNA species, STING becomes activated to drive the transcription of cytokines such as type I IFN. Compounds binding to STING via TSA were subsequently examined for their ability to prevent cytosolic DNA species from activating the type I interferon (IFN) promoter, using a live cell assay. This assay comprised immortalized human fibroblasts (hTERT) that were stably transfected with the type I IFN promoter driving luciferase as well as the CMV promoter driving SEAP (hTERT-pIFNβ-Glu). The live cell assay has previously been disclosed in PCT/US2019/025380 entitled IFN-Beta Reporter System for Immortalized Primary Cells inventor Glen N. Barber, which was filed Apr. 2, 2018 and published as WO2019195285, and which is herein incorporated by reference in its entirety and for all purposes. The ability of the small molecules to prevent activation of the type I IFN promoter and the transcription of luciferase, but not SEAP in response to cytosolic DNA species was assessed. The activation of STING, typically by CDNs, in turn activates the transcription factors NF-κB and IRF3, both of which are required to induce the transcriptional stimulation of the Type I IFN promoter, but not the CMV promoter as IRF3 and NF-kB transcription factor binding sites are not contained in the CMV promoter. The assay identified the small molecule Compound W1 in the first screen (HTS), where the level of luciferase was not able to activate the type I IFN promoter or induce the expression of luciferase (see Table I and Table II).
Inhibition of IFNβ expression was measured by Luciferase induction at 24 hours after transfection of ISD. ISD only treatment was used as control.
Inhibition of IFNβ expression was measured by Luciferase induction at 24 hours after transfection of ISD, Mock is shown (210), ISD treatment only (220) was used as a control.
Luciferase assay: hTERT-BJ1 Telomerase Fibroblasts stably expressing the luciferase gene under the control of the interferon-beta promoter and SEAP gene under control of the CMV promoter) (hTERT-pIFNβ-Glu) were generated by the Barber laboratory. Luciferase assay was performed using Secrete-Pair Dual Luminescence Assay Kit from GeneCopoeia following the manufacturer's protocol.

The test system of experiment [2] is IRF3 translocation induced by dsDNA (ISD). Kind of experiment: IRF3 translocation inhibition, confocal/immunofluorescence after ISD transfection. It is filed as cell-based. The following applies: Homo sapiens, % means blockage of IRF3 translocation induced by dsDNA (ISD). The method, then: Inhibition of IFNβ expression was measured by Luciferase induction at 24 hours after transfection of ISD. […]. […] FIG. 3H qPCR of IFNβ 1 performed in MEFs treated same as in FIG. 3A. FIG. 3I qPCR of CCL5 performed in MEFs treated same as in FIG. 3A.
Immunofluorescence Microscopy: Cells were cultured and treated in their appropriate media on Lab-Tek II chamber slides. Cell were fixed with 4% paraformaldehyde for 15 minutes in at 37° C. and permeabilized with 0.05% Triton X-100 for 5 minutes at room temperature. Immunostaining was performed with rabbit-anti-STING polyclonal, rabbit-anti-IRF3 (Santa Cruz Biotechnology) or rabbit-anti-p65 (Cell Signaling) followed by fluorescence conjugated secondary antibodies (FITC-goat-anti-rabbit) (Invitrogen).

As to `Cc1cc([N+](=O)[O-])ccc1S(=O)(=O)Nc1nc2cc(C(F)(F)F)ccc2[nH]1` [Compound W1, 2-methyl-4-nitro-N-[5-(trifluoromethyl)-1H-1,3-benzodiazol-2-yl]benzene-1-sulfonamide], the “activation of the type I IFN promoter in response to cytosolic DNA (luciferase)” value in experiment [1] (50 μM, 24 hours, ISD 3 μg/ml, hTERT-pIFNβ-Glu cells) is on record as “inhibited activation of the type I IFN promoter”. The molecule also came in with an inhibition at 5 µM in experiment [1] (Homo sapiens) of 4%. The same molecule had an inhibition at 25 µM in experiment [2] of 40 to 50%.

The values above are taken from patent US20240270737A1, “SMALL MOLECULAR INHIBITORS OF STING SIGNALING COMPOSITIONS AND METHODS OF USE” (STINGINN INC., priority 2021, published 2024).
